These results are taken from US8012983B2, “Substituted triazolopyrazines useful for the treatment of degenerative and inflammatory diseases” (Galapagos NV, priority 2008, dated 2011).

A value given as a limit tells only on which side of the number the result lay.

The target in the experiment is T1, MAPKAPK5 (Homo sapiens, UniProt Q8IW41).
T1 sequence (Q8IW41 1-471 isoform Q8IW41-2): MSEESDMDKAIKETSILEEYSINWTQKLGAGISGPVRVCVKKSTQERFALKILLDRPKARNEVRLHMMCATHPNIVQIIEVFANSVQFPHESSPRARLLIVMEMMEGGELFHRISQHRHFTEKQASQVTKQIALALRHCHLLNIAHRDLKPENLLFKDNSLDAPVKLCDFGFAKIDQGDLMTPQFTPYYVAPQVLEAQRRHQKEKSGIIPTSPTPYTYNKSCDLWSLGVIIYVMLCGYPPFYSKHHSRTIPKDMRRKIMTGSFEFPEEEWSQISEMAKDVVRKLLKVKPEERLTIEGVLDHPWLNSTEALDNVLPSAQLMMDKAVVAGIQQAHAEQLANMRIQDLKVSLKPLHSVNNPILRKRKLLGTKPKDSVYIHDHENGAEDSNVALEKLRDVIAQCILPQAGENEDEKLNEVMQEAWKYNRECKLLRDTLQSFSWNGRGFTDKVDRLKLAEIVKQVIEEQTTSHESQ
Description: MAPKAP-K5 FlashPlate kinase assay. The class given is biochemical. Conditions: 0.6 μM ATP, 30 minutes, room temperature. As for the experimental part: MAPKAP-K5 reactions are performed in FlashPlate format using 0.1 or 0.2 μCi 33P-ATP; 0.6 μM ATP; 1 mU MAPKAP-K5; 3 μM MAPKAP-K5 peptide substrate, incubated at room temperature for 30 minutes.
The MAPKAP-K5 kinase reaction is performed in a 384 well polypropylene plate (Matrix Technologies) and then transferred to a streptavidin-coated 384 well flashplate (Perkin-Elmer). To wells containing 2 μL test compound or standard inhibitor, 13 μL Enzyme mix or diluent are added using a Hydra (Robbins Scientific). Reactions are started by addition of 10 μL of [2.5×] substrate cocktail using a Multidrop (Thermo-Labsystems), to give final concentrations in the assay of: • 1 mU MAPKAP-K5 • 3 μM MAPKAP-K5 peptide substrate • 0.6 μM ATP • 0.004 μCi [33P]-γ-ATP/μL • 1× reaction buffer
Plates are incubated at room temperature for 30 minutes. Reactions are terminated by the addition of 25 μL EDTA (50 mM) to each well using a Micro-fill (Biotek). Reactions are transferred to a streptavidin-coated flashplate using a Zymark robotic system. Plates are incubated for 60 minutes at room temperature. All wells are washed 3 times with 100 μl phosphate buffered saline using a Tecan plate washer. Radioactivity is determined by scintillation counting of the flashplate (empty wells) on a Packard TopCount.
Enzyme Mix: • Enzyme • 50 mM Tris Hcl (pH 7.5) • 0.1 mM EGTA • 2 mM DTT • 1 mg/mL BSA
Reaction Buffer: • 50 mM Tris Hcl (pH 7.5) • 0.1 mM EGTA • 10 mM Magnesium acetate • 2 mM DTT
A word on the IC50: it is the concentration at which inhibition is half-maximal. Read a high IC50 as weaker potency. The compound `CC(C)N1C[C@@H]2C[C@H]1CN2c1ccc(Nc2ncc(-c3coc(C(N)=O)c3)n3ccnc23)cc1` [Compound 4, 4-{8-[4-((1S,4S)-5-Isopropyl-2,5-diaza-bicyclo[2.2.1]hept-2-yl)-phenylamino]-imidazo[1,2-a]pyrazin-5-yl}-furan-2-carboxamide] had an IC50 of 101 to 500 nM.

`CC(C)N1C[C@@H]2C[C@H]1CN2c1cccc(Nc2ncc(-c3coc(C(N)=O)c3)n3ccnc23)c1` [Compound 25, 4-(8-(3-((1S,4S)-5-isopropyl-2,5-diazabicyclo[2.2.1]heptan-2-yl)phenylamino)imidazo[1,2-a]pyrazin-5-yl)furan-2-carboxamide] gave a half-maximal inhibitory concentration (IC50) of 101 to 500 nM.

As for `CC(C)N1C[C@@H]2C[C@H]1CN2c1cccc(Nc2ncc(-c3coc(C(N)=O)c3)n3ncnc23)c1` [Compound 24, 4-(8-(3-((1S,4S)-5-isopropyl-2,5-diazabicyclo[2.2.1]heptan-2-yl)phenylamino)-[1,2,4]triazolo[1,5-a]pyrazin-5-yl)furan-2-carboxamide], the 50% inhibitory concentration (IC50) was in the range of 0.01 to 100 nM.

The compound `CC(C)N1C[C@@H]2C[C@H]1CN2c1ccc(Nc2ncc(-c3cc(C(N)=O)n[nH]3)n3ncnc23)cc1` [Compound 5, 5-{8-(4-((1S,4S)-5-isopropyl-2,5-diazabicyclo[2.2.1]heptan-2-yl)phenyl-amino)-[1,2,4]triazolo[1,5-a]pyrazin-5-yl}-1H-pyrazole-3-carboxamide] registered an IC50 of 101 to 500 nM.

`CC(C)(C)N1C[C@@H]2C[C@H]1CN2c1ccc(Nc2ncc(-c3cc(C(N)=O)n[nH]3)n3ncnc23)cc1` [Compound 17, 5-{8-(4-((1S,4S)-5-tert-butyl-2,5-diazabicyclo[2.2.1]heptan-2-yl)phenyl-amino)-[1,2,4]triazolo[1,5-a]pyrazin-5-yl}-1H-pyrazole-3-carboxylic acid amide] displayed an IC50 of 101 to 500 nM.

With `CC(C)N1C[C@@H]2C[C@H]1CN2c1ccc(Nc2ncc(-c3ccc4c(c3)CNC4=O)n3ncnc23)cn1` [Compound 18, 5-{8-(6-((1S,4S)-5-isopropyl-2,5-diazabicyclo[2.2.1]heptan-2-yl)pyridin-3-ylamino)-[1,2,4]triazolo[1,5-a]pyrazin-5-yl}-2,3-dihydro-isoindol-1-one], the IC50 was in the range of 101 to 500 nM.

As to `CCOc1cc(-c2cnc(Nc3ccc(N4C[C@@H]5C[C@H]4CN5C(C)C)cc3)c3nccn23)ccn1` [Compound 22, 5-(2-ethoxypyridin-4-yl)-N-(4-((1S,4S)-5-isopropyl-2,5-diazabicyclo[2.2.1]heptan-2-yl)phenyl)imidazo[1,2-a]pyrazin-8-amine], the IC50 is greater than 1000 nM.

In turn, `CC(C)N1C[C@@H]2C[C@H]1CN2c1ccc(Nc2ncc(-c3ccc4c(c3)CNC4=O)n3ncnc23)cc1` [Compound 1, 5-{8-[4-((1S,4S)-5-Isopropyl-2,5-diaza-bicyclo[2.2.1]hept-2-yl)-phenylamino]-[1,2,4]triazolo[1,5-a]pyrazin-5-yl}-2,3-dihydro-isoindol-1-one] yielded a half-inhibitory concentration (IC50) of 0.01 to 100 nM.

As to `CCOC(=O)c1cc(-c2cnc(Nc3ccc(N4C[C@@H]5C[C@H]4CN5C(C)C)cc3)c3ncnn23)[nH]n1` [Compound 21, Ethyl 5-(8-(4-((1S,4S)-5-isopropyl-2,5-diazabicyclo[2.2.1]heptan-2-yl)phenylamino)-[1,2,4]triazolo[1,5-a]pyrazin-5-yl)-1H-pyrazole-3-carboxylate], the IC50 was greater than 1000 nM.

With `CC(C)N1CC2CCC(C1)N2c1ccc(Nc2ncc(-c3coc(C(N)=O)c3)n3ccnc23)cc1` [Compound 11, 4-{8-(4-(3-isopropyl-3,8-diazabicyclo[3.2.1]octan-8-yl)phenylamino)-imidazo[1,2-a]pyrazin-5-yl}-furan-2-carboxamide], the IC50 lay in the range of 101 to 500 nM.

`CC(C)N1C[C@@H]2C[C@H]1CN2c1ccc(Nc2ncc(-c3noc(C(N)=O)n3)n3ncnc23)cc1` [Compound 23, 3-(8-(4-((1S,4S)-5-isopropyl-2,5-diazabicyclo[2.2.1]heptan-2-yl)phenylamino)-[1,2,4]triazolo[1,5-a]pyrazin-5-yl)-1,2,4-oxadiazole-5-carboxamide] had an IC50 greater than 1000 nM.

In turn, `CC(C)N1C2CCC1CN(c1ccc(Nc3ncc(-c4coc(C(N)=O)c4)n4ncnc34)cc1)C2` [Compound 12, 4-{8-(4-(8-isopropyl-3,8-diazabicyclo[3.2.1]octan-3-yl)phenylamino)[1,2,4]-triazolo[1,5-a]pyrazin-5-yl}-furan-2-carboxamide] came in with a concentration for half-maximal inhibition (IC50) of 0.01 to 100 nM.

Consider `CC(C)N1C[C@@H]2C[C@H]1CN2c1ccc(Nc2ncc(-c3cc[nH]c(=O)c3)n3ccnc23)cc1` [Compound 8, 4-{8-(4-((1S,4S)-5-isopropyl-2,5-diazabicyclo[2.2.1]heptan-2-yl)phenyl-amino)imidazo[1,2-a]pyrazin-5-yl}-1H-pyridin-2-one], for which the IC50 was 101 to 500 nM.

In turn, `CC(C)(C)N1C[C@@H]2C[C@H]1CN2c1ccc(Nc2ncc(-c3ccc4c(c3)CNC4=O)n3ncnc23)cc1` [Compound 16, 5-{8-(4-((1S,4S)-5-tert-butyl-2,5-diazabicyclo[2.2.1]heptan-2-yl)phenylamino)-[1,2,4]triazolo-[1,5-a]pyrazin-5-yl}-2,3-dihydro-isoindol-1-one] yielded a half-inhibitory concentration (IC50) of 101 to 500 nM.

Regarding `CC(C)N1C[C@@H]2C[C@H]1CN2c1ccc(Nc2ncc(-c3cc[nH]c(=O)c3)n3ncnc23)cc1` [Compound 20, 4-(8-(4-((1S,4S)-5-isopropyl-2,5-diazabicyclo[2.2.1]heptan-2-yl)phenylamino)-[1,2,4]triazolo[1,5-a]pyrazin-5-yl)pyridin-2(1H)-one], the IC50 is greater than 1000 nM.

In turn, `CC(C)N1C[C@@H]2C[C@H]1CN2c1ccc(Nc2ncc(-c3cc(C(N)=O)n[nH]3)n3ncnc23)cn1` [Compound 15, 5-{8-(6-((1S,4S)-5-isopropyl-2,5-diazabicyclo[2.2.1]heptan-2-yl)pyridin-3-ylamino)-[1,2,4]triazolo[1,5-a]pyrazin-5-yl}-1H-pyrazole-3-carboxylic acid amide] returned an IC50 of 101 to 500 nM.

`CC(C)N1CC2CCC1CN2c1ccc(Nc2ncc(-c3coc(C(N)=O)c3)n3ncnc23)cc1` (stereo not shown) [Compound 9, 4-{8-(4-(5-isopropyl-2,5-diazabicyclo[2.2.2]octan-2-yl)phenylamino)[1,2,4]-triazolo[1,5-a]pyrazin-5-yl}-furan-2-carboxamide]: the half-inhibitory concentration (IC50) is 0.01 to 100 nM.

In the case of `CC(C)(C)N1C[C@@H]2C[C@H]1CN2c1ccc(Nc2ncc(-c3coc(C(N)=O)c3)n3ncnc23)cc1` [Compound 3, 4-{8-[4-((1S,4S)-5-tert-Butyl-2,5-diaza-bicyclo[2.2.1]hept-2-yl)-phenylamino]-[1,2,4]triazolo[1,5-a]pyrazin-5-yl}-furan-2-carboxamide], the 50% inhibitory concentration (IC50) was 0.01 to 100 nM.

For `CC(C)(C)N1C[C@@H]2C[C@H]1CN2c1ccc(Nc2ncc(-c3coc(C(N)=O)c3)n3ccnc23)cc1` [Compound 6], the IC50 was in the range of 101 to 500 nM.

The compound `CCOc1cc(-c2cnc(Nc3ccc(N4C[C@@H]5C[C@H]4CN5C(C)C)cc3)c3ncnn23)ccn1` [Compound 19, 5-(2-ethoxypyridin-4-yl)-N-(4-((1S,4S)-5-isopropyl-2,5-diazabicyclo[2.2.1]heptan-2-yl)phenyl)-[1,2,4]triazolo[1,5-a]pyrazin-8-amine] yielded a 50% inhibitory concentration (IC50) greater than 1000 nM.

On to `CC(C)N1C[C@@H]2C[C@H]1CN2c1cccc(Nc2ncc(-c3ccc4c(c3)CNC4=O)n3ncnc23)c1` [Compound 26, 5-(8-(3-((1S,4S)-5-isopropyl-2,5-diazabicyclo[2.2.1]heptan-2-yl)phenylamino)-[1,2,4]triazolo[1,5-a]pyrazin-5-yl)isoindolin-1-one], for which the IC50 lay within 101 to 500 nM.

Take `CC(C)N1C[C@@H]2C[C@H]1CN2c1ccc(Nc2ncc(-c3coc(C(N)=O)c3)n3ncnc23)cc1` [Compound 2, 4-{8-[4-((1S,4S)-5-Isopropyl-2,5-diaza-bicyclo[2.2.1]hept-2-yl)-phenylamino]-[1,2,4]triazolo[1,5-a]pyrazin-5-yl}-furan-2-carboxamide]: the IC50 fell in the range of 0.01 to 100 nM.
